Data from publication PMC10257291, “Biological activities of extracts and compounds from Thai Kae-Lae (Maclura cochinchinensis (Lour.) Corner)” (BMC Complementary Medicine and Therapies, 2023).
Converted amounts (≈) assume the structure as drawn.

Columns and labels:
[1] = system: IL-2; test: IL-2 secretion in PHA-stimulated PBMCs (ELISA); format: cell-based, human; details: sample at IC20 value, vs dexamethasone 1 μg/mL
Text: Mouse monocyte macrophage RAW 264.7 cells (American Type Culture Collection, […]-71) were stimulated with lipopolysaccharide (LPS) or phytohemagglutinin (PHA). The LPS treated RAW 264.7 cells served as a vehicle control, of which the NO production, and the secreted cytokines were defined as 100%, whereas a negative control was non-treated RAW 264.7 cells. Dexamethasone (an anti-inflammatory drug) was used as a positive control. PBMCs (1 × 10^5 cells/well in RPMI-1640 for IL-2) and Raw cells (1 × 10^5 cells/well in DMEM for TNF-α) were seeded for 24 h in a CO2 incubator set at 37 °C and 5% CO2/95% humidified air. Then cells were treated with […] fractional extracts (IC20 value) or pure compounds (IC20 value), or dexamethasone (1 μg/mL) were added. Following 2-h of incubation in a CO2 incubator, LPS was treated for a final dose of 1 μg/mL under conditions of TNF-α measurement. In contrast, PHA was added to induce inflammation in IL-2 measurement. After 24 h, the media were removed and centrifuged at 13,500 × g for 10 min and 100 μL of the supernatant was analysed by the protocol of R&D Systems, Minneapolis, MN, USA using ELISA technique. The absorbance was measured at 450 nm and corrected with the reference wavelength of 570 nm (Beckman CoulterDTX880, Fullerton, CA, USA). Viability of PBMCs and RAW 264.7 cells was also determined using MTT assay as described previously. IL-2 and TNF-α secretion inhibitions were calculated as bellow:4 %Cytokineinhibition=A-B/A×100 A is the optical density of the mixture without the sample, while B is the optical density of the mixture with the sample. Dexamethasone was a positive control. All experiments were done in triplicate.

[2] = system: K562 cells; test: Cytotoxicity by MTT assay in K562 cells; format: cell-based; details: Homo sapiens, 48 h, read-out: IC50 values (mean ± SD) K562
Protocol: (§1) Leukaemic cell lines including KG-1a (leukaemic stem cell-like cell line with stem cell population), EoL-1 (human […] leukaemic cell line), and K562 (human erythroid leukaemic cell line) were cultured as previously described. The MTT (3-(4,5-dimethylthiazol-2-yl)-2,5-diphenyltetrazolium bromide) assay was used to determine the cytotoxicity of […] extracts and active compounds on leukaemic cells. The method was described previously. K562 (1.0 × 10^5 cells/mL), EoL-1 (3.0 × 10^5 cells/mL), and KG-1a (2.0 × 10^5 cells/mL) were added samples and then incubated for 48 h. The percentage of surviving cells was calculated using the following equation: 1 %Cellviability=Meanabsorbanceintestwell/[…] 50% inhibitory concentration (IC50) was determined as the lowest concentration that inhibited cell growth by 50% compared with the untreated control.

[3] = system: PBMCs; test: Cytotoxicity of PBMCs by MTT assay; format: cell-based; details: Homo sapiens, PBMC, 48 h, normal PBMCs, read-out: IC50 values (mean ± SD) PBMCs
Protocol: Method was done as previously described. Briefly, peripheral blood mononuclear cells (PBMCs) were obtained from healthy donors using Ficoll-Hypaque density-gradient centrifugation using Lymphoprep™ solution (Axis-Shield, Oslo, Norway). The PBMCs (1 × 10^6 cells/mL) were cultured in complete RPMI-1640 medium in 96-well plates overnight in a CO2 incubator. […] Then cells were further incubated for 48 h. The survival rate of cells was assessed using the MTT assay.

[4] = system: KG-1a cells; test: Cytotoxicity by MTT assay in KG-1a cells; format: cell-based; details: Homo sapiens, 48 h, read-out: IC50 values (mean ± SD) KG-1a
Protocol: as §1

[5] = system: EoL-1 cells; test: Cytotoxicity by MTT assay in EoL-1 cells; format: cell-based; details: Homo sapiens, EOL1, 48 h, read-out: IC50 values (mean ± SD) EoL-1
Protocol: as §1

[6] = RBC haemolysis induction; details: human, 2% red blood cell suspension
Protocol: The whole blood samples were obtained from normal volunteers. Red blood cells were separated by centrifugation and washed 2 times with 0.9% NaCl. Then, 2% RBC suspension was incubated with crude fractional extracts and compounds at 37 °C for 30 min. Triton-X 100 (2%) and NaCl (0.9%) were positive and negative controls, respectively. Then, the supernatant was collected, and haemoglobin concentration was measured by spectrophotometry at 540 nm. The haemolysis induction was calculated using the following equation:5 %Haemolysisinduction=Absorbance of sample/Absorbance of positive contr×100

[7] = system: EoL-1 cells; test: Rate of proliferation, EoL-1 cells; format: cell-based, human; details: for decrease of rate of proliferation, EoL-1 cells: IC20 value, 24 and 48 h (time-response), vs control; for rate of cell proliferation, EoL-1 cells (in words): concentrations IC10 − IC20 values, 48 h
Protocol: (§2) According to the principle of trypan blue exclusion, viable cells with intact membranes can exclude trypan blue dye, while dead cells with compromised membranes are stained by the trypan blue dye solution. A cell suspension and trypan blue dye solution (0.2%) were mixed, and viable and dead cells were counted under microscope using a hemacytometer. Then, the percentage of viable cells was calculated. KG-1a, EoL-1 and K562 cells were cultured with crude fractional extracts and active pure compounds at various concentrations (10 − 20% growth inhibition; IC10 − IC20 values) of each extract for 48 h, at a 20% growth inhibition (IC20 value) of each extract for 24 and 48 h. Following incubation, cells were harvested, and the total cell number was counted using trypan blue exclusion method. Three independent experiments were plotted as a dose–response curve and compared with the vehicle control. Meanwhile, the total cell number of each cell line after fractional extract and pure compound treatments at 24 and 48 h were calculated and plotted as a time-response curve. Slopes from each graph were considered as the rate of cell proliferation.

[8] = system: RAW 264.7 cells; test: RAW 264.7 cell viability by MTT assay; format: cell-based; details: Mus musculus, RAW264.7, read-out: IC20 values (concentrations at 80% of RAW 264.7 cells)
Protocol: Mouse monocyte macrophage RAW 264.7 cells (American Type Culture Collection, […]-71) were stimulated with lipopolysaccharide (LPS) or phytohemagglutinin (PHA). The LPS treated RAW 264.7 cells served as a vehicle control, of which the NO production, and the secreted cytokines were defined as 100%, whereas a negative control was non-treated RAW 264.7 cells. Dexamethasone (an anti-inflammatory drug) was used as a positive control. RAW 264.7 cell viability was also determined with the assay kit using MTT assay. The supernatant was removed, and MTT was added. After 2 h in a CO2 incubator, the supernatant was removed, and the formazan crystal were dissolved with DMSO. The optical density was measured at 578 nm and corrected with the reference wavelength of 630 nm using a multimode detector (Beckman CoulterDTX880, Fullerton, CA, USA). NO inhibitions were calculated using the following equation: […]

[9] = system: K562 cells; test: Rate of proliferation, K562 cells; format: cell-based, human; details: for decrease of rate of proliferation, K562 cells: IC20 value, 24 and 48 h (time-response), vs control; for rate of cell proliferation, K562 cells (in words): concentrations IC10 − IC20 values, 48 h
Protocol: as §2

[10] = system: EoL-1 cells; test: Total cell number by trypan blue exclusion, EoL-1 cells; format: cell-based, human; details: IC20 value, 48 h, vs vehicle control
Protocol: as §2

[11] = system: KG-1a cells; test: Rate of proliferation, KG-1a cells; format: cell-based, human; details: for decrease of rate of proliferation, KG-1a cells: IC20 value, 24 and 48 h (time-response), vs control; for rate of cell proliferation, KG-1a cells (in words): concentrations IC10 − IC20 values, 48 h
Protocol: as §2

Row | Structure (SMILES) | IL-2 inhibition [1] | IC50 [2] | IC50 [3] | IC50 [4] | IC50 [5] | hemolysis at 30 min, 50 μg/mL [6] | hemolysis at 30 min, 100 μg/mL [6] | hemolysis at 30 min, 150 μg/mL [6] | decrease of rate of proliferation, EoL-1 cells [7] | IC20 [8] | decrease of rate of proliferation, K562 cells [9] | rate of cell proliferation, K562 cells (in words) [9] | hemolysis at 30 min, 10 μg/mL [6] | rate of cell proliferation, EoL-1 cells (in words) [7] | decrease of total cell number, EoL-1 cells [10] | decrease of rate of proliferation, KG-1a cells [11] | rate of cell proliferation, KG-1a cells (in words) [11] | hemolysis at 30 min, 20 μg/mL [6] | hemolysis at 30 min, 40 μg/mL [6]
1 | O=c1c(O)c(-c2ccc(O)cc2O)oc2cc(O)cc(O)c12 [Morin, 2’,3,4’,5,7-pentahydroxyflavonone] | suppressed IL-2 significantly better than dexamethasone | > 100 µg/mL | > 100 µg/mL | > 100 µg/mL | 18.4 ± 1.6 µg/mL (≈ 60.7 µM) | 9.39 ± 1.34% | 9.82 ± 1.09% | 10.2 ± 1% | decrease the proliferation rate | 62.4 ± 7.44 µg/mL (≈ 206 µM) | decrease the proliferation rate | significant difference at concentrations of 70, 80, and 90 µg/mL |  |  |  |  |  |  | 
2 | O=c1c(O)c(-c2ccc(O)c(O)c2)oc2cc(O)cc(O)c12 [Quercetin, quercetin] | suppressed IL-2 significantly better than dexamethasone | > 100 µg/mL | > 100 µg/mL | 72.6 ± 7.45 µg/mL (≈ 240 µM) | 5.89 ± 0.46 µg/mL (≈ 19.5 µM) | 8.85 ± 0.21% | 8.74 ± 0.26% |  | significantly decreasing rates of proliferation | 35.5 ± 6.49 µg/mL (≈ 118 µM) | significantly decreasing rates of proliferation | significantly decreasing rate of cell proliferation | 8.51 ± 0.86% | significantly decreasing rate of cell proliferation | 23.25% | significantly decreasing rates of proliferation | significantly decreasing rate of cell proliferation |  | 
3 | Oc1ccc(/C=C/c2cc(O)cc(O)c2)cc1 [Resveratrol, resveratrol] | suppressed IL-2 significantly better than dexamethasone | 41.6 ± 1.92 µg/mL (≈ 182 µM) | 44 ± 9.7 µg/mL (≈ 193 µM) | 20.7 ± 2.65 µg/mL (≈ 90.7 µM) | 5.49 ± 0.29 µg/mL (≈ 24.1 µM) |  |  |  | 95.45% | 3.4 ± 0.2 µg/mL (≈ 14.9 µM) | 93.20% | significantly decreasing rate of cell proliferation | 8.96 ± 1.83% | significantly decreasing rate of cell proliferation | 74.14% | 86.02% | significantly decreasing rate of cell proliferation | 8.58 ± 0.67% | 8.95 ± 0.21%
